This is an account of results in patent US20080311126A1, “Antisense Oligonucleotides Directed to Ribonucleotide Reducatase R2 and Uses Thereof in Combination Therapies for the Treatment of Cancer” (Genesense Technologies, Inc, priority 2004, published 2008).

“Also recorded” adds a separate entry of the source.

Data set [1] deals with PC-3 human prostatic cancer cells. The data set can be described thus: PC-3 prostatic tumour xenograft in SCID mice. It counts as in vivo. To be noted: FIG. 14A; SEQ ID NO:1 10 mg/kg 18 times; mitoxantrone 2 mg/kg once. The procedure: In both experiments, PC-3 human prostatic cancer cells (1×10^7 cells in 100 μl of PBS) were subcutaneously injected into the right flank of 6-7 weeks old male SCID mice. After the size of tumour reached an approximate volume of 50 mm^3, 14 days post tumour cell injection, SEQ ID NO:1 was administered by bolus infusion into the tail vein every other day at 10 mg/kg 18 times (FIG. 14A) or 17 times (FIG. 14B), respectively. Control animals received saline alone for the same period. Antitumour effect of SEQ ID NO:1 was further compared to that of mitoxantrone (Novantrone®) alone or in combination. Mitoxantrone was administered intravenously once at the beginning of the treatments at a dose of 2 mg/kg (FIG. 14A) or once a week for four weeks at a reduced dose of 0.8 mg/kg (FIG. 14B). All treatments were stopped at day 50 (FIG. 14A) or 48 (FIG. 14B), respectively. A day after the last treatment, tumours were excised from the animals and their weights were measured.

Data set [2] has as its system DU145 human prostatic cancer cells. The data set can be described thus: DU145 prostatic tumour xenograft in SCID mice. It counts as in vivo. As to the method:
In both experiments, DU145 human prostatic cancer cells (1×10^7 cells in 100 μl of PBS) were subcutaneously injected into the right flank of 6-7 weeks old male SCID mice. After the size of tumour reached an approximate volume of 50 mm^3, 13 FIG. 15A) or 11 (FIG. 15B) days post tumour cell injection, SEQ ID NO:1 was administered by bolus infusion into the tail vein every other day at 10 mg/kg 15 times (FIG. 15A) or 14 times (FIG. 15B), respectively. Control animals received saline alone for the same period. Antitumour effect of SEQ ID NO:1 was further compared to that of mitoxantrone (Novantrone®) alone or in combination. Mitoxantrone was administered intravenously once at the beginning of the treatments at a dose of 2 mg/kg (FIG. 15A) or once a week for four weeks at a reduced dose of 0.8 mg/kg (FIG. 15B). All treatments were stopped at day 42 (FIG. 15A) or 38 (FIG. 15B); respectively. A day after the last treatment, tumours were excised from the animals and their weights were measured.

For data set [3], the system named is Hela S3 human cervix epitheloid carcinoma cells. The data set can be described thus: Hela S3 hydroxyurea resistant cervix carcinoma xenograft in SCID mice. Format: in vivo. As to the method:
Hela S3 human cervix epitheloid carcinoma cells (5×10^5 cells in 100 μl of PBS) were subcutaneously injected into the right flank of 6-7 weeks old female SCID mice. Hela S3 is a hydroxyurea resistant cell line. After the size of tumour reached an approximate volume of 100 mm^3, 3 days post tumour cell injection, SEQ ID NO:1 was administered by bolus infusion into the tail vein every other day at 10 mg/kg 6 times. Control animals received saline alone for the same period. Antitumour effect of SEQ ID NO:1 was further compared to that of Hydroxyurea or Cisplatin alone or in combination. Hydroxyurea was administered intraperitoneally every day at a dose of 250 mg/kg for 10 days. Cisplatin was administered intravenously once a week for three weeks at a dose of 4 mg/kg. Antitumour activities were estimated by the inhibition of tumour volume, which was measured with caliper. Each point represents mean tumour volume calculated from 10 animals per experimental group. […] As expected, treatment with Hydroxyurea during the same period was ineffective against Hydroxyurea-resistant tumour.

The subject of another data set is Mouse Fibrosarcoma. The data set can be described thus: Tumour growth assay, mouse fibrosarcoma in C3H mice. Format: in vivo.
The subject of the next data set is Human Renal Carcinoma. Nature of the data set: Tumour growth assay, human renal carcinoma in mice. Format: in vivo.
For another data set, the system named is Burkitt's Lymphoma. The data set can be described thus: Survival assay, Burkitt's lymphoma in mice. Format: in vivo, human. The procedure: For the study of the effect of the compositions on leukaemias, the animals are grafted with a particular number of cells, and the anti-tumour activity is determined by the increase in the survival time of the treated mice relative to the controls.

Another data set deals with Hela S3 cells. The data set can be described thus: Relative colony forming efficiency, lipofectin +/- oligonucleotide 4 hours. It counts as cell-based, human. To be noted: Hela S3 cervix carcinoma cells; averages of 2-8 determinations. The gist of the method: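 Survival is given as percent of lipofectin-treated controls, scored as methylene blue-stained colonies after 7–10 days of regrowth. Beforehand, HeLa S3 cultures received a 4 h lipofectin-mediated pulse of oligonucleotide, normally at 0.2 μM.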

As for “GGCTAAATCGCTCCACCAAG (chemistry not given here) [SEQ ID NO: 1, antisense oligonucleotide that hybridizes to the coding region of human ribonucleotide reductase R2 mRNA]”, the “antitumour effect (tumour weight)” value in data set [1] is “significant delay of tumour growth”; in data set [2] (FIG. 15A, SEQ ID NO:1 10 mg/kg 15 times, mitoxantrone 2 mg/kg once), “significant delay of tumour growth”. Further, the “Tumour weight as % of saline control” value in data set [2] (DU145 (prostatic), Mouse SCID, second of two value columns (two independent experiments)) stood at 41%; in data set [3] (Hela S3 (cervix), hydroxyurea resistance, SCID), 24%. For the same sequence, the “antitumour effect (tumour volume)” value in data set [3] (SEQ ID NO:1 10 mg/kg 6 times, Hydroxyurea 250 mg/kg i.p. 10 days, Cisplatin 4 mg/kg i.v. weekly) is given as “significant delay of tumour growth; also recorded: superior to the inhibitory effects observed with Cisplatin alone”. The “Inhibition of tumour volume” value with Mouse Fibrosarcoma (C3H mice, Day 15 after tumour implantation) is “mice by approximately 80% on Day 15”. Also, in the data set with Mouse Fibrosarcoma (C3H mice, doses of 0.5 to 30 mg/kg), the “dose dependence of decrease in tumour weight” value is given as “Dose-dependent decrease in tumour”. Also, the “Inhibition of tumour weight” value with Mouse Fibrosarcoma (Mouse Fibrosarcoma) is listed as “approximately 80%”. Further, the “Inhibition of tumour size” value was “Approximately 90% inhibition of” in the data set on Human Renal Carcinoma (Human Renal Carcinoma (first entry)) and “Approximately 97% inhibition of” with Human Renal Carcinoma (Human Renal Carcinoma^2 (second entry)). Further, the “effect of treatment on survival” value in the data set on Burkitt's Lymphoma (first entry) and in the data set with Burkitt's Lymphoma (second entry) was “Treatment prolonged survival” in each case. In addition, in the data set with Burkitt's Lymphoma (first entry, untreated died by day 23, one treated mouse died at day 69), the “survival of treated mice” value is reported as “Treated mice survived beyond day 73”. Also, the “survival of all treated mice (end of the experimental period)” value in the data set on Burkitt's Lymphoma (second entry, untreated died by day 20) was “the experimental period (140 days)”. In addition, the “Reduced relative colony forming efficiency, Hela S3 (% inhibition of colony forming ability)” value in the data set on Hela S3 cells came to 67.92%.
